For nine compounds, Activity results are on record in ChEMBL document CHEMBL1150465, “DNA topoisomerase II inhibition by substituted 1,2,3,4-tetrahydro--carboline derivatives” (Bioorg Med Chem Lett, 1994).

Calls of active or inactive are those of the source. The rule behind the calls is not given here.

The target of experiment [1] is T1, DNA topoisomerase II (Homo sapiens) (UniProt P11388+Q02880). Put plainly: Compound was tested for DNA Topoisomerase II mediated cleavage of DNA; Each (+) indicates 1 to 2 -fold increase. It counts as protein assay.
Experiment [2] concerns Nucleic Acid. The experiment can be described thus: DNA intercalating activity was determined; Each (+) indicates 1 to 2 -fold increase. It counts as functional.
For experiment [3], the target named is T1, DNA topoisomerase II (Homo sapiens). The experiment can be described thus: Compound was tested for DNA Topoisomerase II mediated cleavage of DNA; Each + indicates 2 to 4 fold increase. It is filed as protein assay.
The target is the same in experiment [4]. The experiment can be described thus: Compound was tested for DNA Topoisomerase II mediated cleavage of DNA; inactive. It counts as protein assay.
For experiment [5] the target is unchanged. The experiment can be described thus: Compound was tested for DNA Topoisomerase II mediated cleavage of DNA; No increase. It is filed as protein assay.
Experiment [6] relates to Nucleic Acid. Put plainly: DNA intercalating activity was determined; Each + indicates a 2 to 4 fold increase. It counts as functional.

Consider `COC(=O)N1CCc2c([nH]c3ccccc23)C1c1ccc(N)c(OC)c1` (configuration not stated), for which the Activity entry in experiment [1] was “+”.

Turning to `COC(=O)N1CCc2c([nH]c3ccccc23)C1c1cc(OC)c(O)c(OC)c1` (stereo in doubt; 5), the values for the Activity entry (in the experiment with Nucleic Acid [2]; in experiment [3]) were “(+)” and “denotes 2 to 4 fold increase”, respectively.

With `COC(=O)N1CCc2c([nH]c3ccccc23)C1c1cc(OC)c(OC)c(OC)c1` (configuration not stated), the outcome in experiment [4] was inactive.

As to `COc1cc([C@@H]2c3cc4c(cc3[C@@H](O[C@@H]3O[C@@H]5CO[C@@H](C)O[C@H]5[C@H](O)[C@H]3O)[C@H]3COC(=O)[C@H]23)OCO4)cc(OC)c1O`, the Activity result in the experiment on Nucleic Acid [2] was “(+)”; in experiment [3], “++”.

Turning to `COC(=O)N1CCc2cc3c(cc2C1c1cc(OC)c(O)c(OC)c1)OCO3` (configuration not stated), the Activity result in experiment [5] is “No increase”.

`COC(=O)N1CCc2c([nH]c3ccccc23)C1c1ccc(O)cc1` (configuration not stated): the outcome in experiment [4] was inactive.

For the compound `COC(=O)N1CCc2c([nH]c3ccccc23)C1c1cc(OC)c(O)c(OC)c1` (stereo in doubt; 4), the figures for the Activity entry (in the experiment with Nucleic Acid [6]; in experiment [3]) were “denotes 2 to 4 fold increase” and “++(+)”, respectively.

On to `COc1cc(C2C3Nc4ccccc4C3CC3CCC(=O)N32)cc(OC)c1O` (configuration not stated), for which, in experiment [3], the Activity result is “++”.

In the case of `COC(=O)N1CCc2c([nH]c3ccccc23)C1c1ccc(NS(C)(=O)=O)c(OC)c1` (configuration not stated), the Activity entry in experiment [1] was “+”.
